The nature of series [1]: Masking of off-notes of high-intensity sweeteners (comparison of dihydrochalcones). The conditions noted are these: used at soluble concentrations.
The nature of series [2]: Solubility in water at room temperature. In kind it is physicochemical. The conditions noted are these: for solubility: in water at room temperature; for solubility in water, comparison in words: compared with other dihydrochalcones / with 3-phenyl-1-(2,4,6-trimethoxyphenyl)propan-1-one.
For series [3] the following is noted: relative to sucrose; cited from earlier work.

Peptide text beside a SMILES is read from it.

On to `COc1ccc(CCC(=O)c2c(O)cc(OC)cc2OC)cc1` [1-(2-hydroxy-4,6-dimethoxyphenyl)-3-(4-methoxyphenyl)propan-1-one], for which the “masking properties / masking effect” value in series [1] is reported as “significantly lower masking effect”. For the same compound, the solubility result in series [2] is listed as “below 5 ppm”. With `COc1cc(OC)c(C(=O)CCc2ccccc2)c(OC)c1` [3-phenyl-1-(2,4,6-trimethoxy-phenyl)propan-1-one], the “masking properties / masking effect” value in series [1] is “particularly good masking properties”. Further, in series [2], the solubility entry is “greater than 30 ppm” and the “solubility in water, comparison in words” value is given as “much higher solubility in water than other dihydrochalcones”. In the case of `COC(=O)[C@H](Cc1ccccc1)NC(=O)[C@@H](N)CC(=O)O` [Aspartame] (H-Asp-Phe-OMe), the “times sweeter than sucrose” value in series [3] is reported as 160-200 times. For `O=C(CCc1ccc(O)cc1)c1c(O)cc(O)cc1O` [phloretin, 3-(4-hydroxyphenyl)-1-(2,4,6-trihydroxyphenyl)propan-1-one], in series [1], the “masking properties / masking effect” value is on record as “did not provide masking properties”. Further, the “solubility in water, comparison in words” value in series [2] was “soluble to a similar extent”. For the compound `O=S(=O)([O-])NC1CCCCC1.[Na+]` [sodium cyclamate], the “times sweeter than sucrose” value in series [3] was “about 30 times”.

Regarding `OC[C@H]1O[C@H](O[C@]2(CCl)O[C@H](CCl)[C@@H](O)[C@@H]2O)[C@H](O)[C@@H](O)[C@H]1Cl` [sucralose], the “times sweeter than sucrose” value in series [3] was “about 600 times”.

On to thaumatin, for which the “times sweeter than sucrose” value in series [3] is given as “about 2 000 times”.

The record behind these values is US9936724B2, “Sweetener compositions” (Givaudan, S.A., priority 2014, dated 2018).
